From patent US10582709B2, “Butyrolactones as herbicides” (FMC Corporation, priority 2015, dated 2020)

Legend:
Format in all cases: in vivo
[1] = tested on: corn (Zea mays); assay: Test A preemergence, corn; conditions: visual rating after approx. 10 d, 0 to 100 scale, 0 no effect, 100 complete control
Description: (§1) Seeds of plant species selected from barnyardgrass (Echinochloa crus-galli), crabgrass (large crabgrass, Digitaria sanguinalis), kochia (Kochia scoparia), ragweed (common ragweed, Ambrosia elatior), morningglory (Ipomoea spp.), velvetleaf (Abutilon theophrasti), ryegrass, Italian (Italian ryegrass, Lolium multiflorum), foxtail, giant (giant foxtail, Setaria faberii), wheat (Triticum aestivum), corn (Zea mays), and pigweed (Amaranthus retroflexus), were planted into a blend of loam soil and sand and treated preemergence with a directed soil spray using test chemicals formulated in a non-phytotoxic solvent mixture which included a surfactant. At the same time, plants selected from these crop and weed species and also blackgrass (Alopecurus myosuroides), and galium (catchweed bedstraw, Galium aparine), were planted in pots containing the same blend of loam soil and sand and treated with postemergence applications of test chemicals formulated in the same manner. Plants ranged in height from 2 to 10 cm and were in the one- to two-leaf stage for the postemergence treatment. Treated plants and untreated controls were maintained in a greenhouse for approximately 10 d, after which time all treated plants were compared to untreated controls and visually evaluated for injury. Plant response ratings, summarized in Table A, are based on a 0 to 100 scale where 0 is no effect and 100 is complete control. A dash (-) response means no test result.

[2] = tested on: barnyardgrass (Echinochloa crus-galli); assay: Test A postemergence, barnyardgrass; conditions: visual rating after approx. 10 d, 0 to 100 scale, 0 no effect, 100 complete control
In short: (§2)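 Following ~10 d greenhouse growth, treated plants were compared with untreated controls and injury rated 0 (no effect) to 100 (complete control). Treatments: directed spray onto seeded loam/sand soil, or onto one- to two-leaf plants 2–10 cm tall, compound formulated in solvent with surfactant.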

[3] = tested on: sedge, umbrella (small-flower umbrella sedge, Cyperus difformis); assay: Test B flooded paddy test, umbrella sedge; conditions: 250 g ai/ha; applied to paddy water at 2-leaf stage; 13 to 15 d; scale 0 no effect to 100 complete control
In short: (§3)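 Plants grown to the 2-leaf stage. At treatment, pots were flooded to 3 cm above the soil, compound was applied directly to the paddy water, and that depth was held throughout. After 13 to 15 d in the greenhouse, response was rated visually against controls on a 0 (no effect) to 100 (complete control) scale.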

[4] = tested on: velvetleaf (Abutilon theophrasti); assay: Test A postemergence, velvetleaf; conditions: visual rating after approx. 10 d, 0 to 100 scale, 0 no effect, 100 complete control
Description: as §1

[5] = tested on: morningglory (Ipomoea spp.); assay: Test A preemergence, morningglory; conditions: visual rating after approx. 10 d, 0 to 100 scale, 0 no effect, 100 complete control
Description: as §1

[6] = tested on: barnyardgrass (Echinochloa crus-galli); assay: Test B flooded paddy test, barnyardgrass; conditions: 250 g ai/ha; applied to paddy water at 2-leaf stage; 13 to 15 d; scale 0 no effect to 100 complete control
In short: as §3

[7] = tested on: crabgrass (large crabgrass, Digitaria sanguinalis); assay: Test A preemergence, crabgrass; conditions: visual rating after approx. 10 d, 0 to 100 scale, 0 no effect, 100 complete control
Description: as §1

[8] = tested on: pigweed (Amaranthus retroflexus); assay: Test A postemergence, pigweed; conditions: visual rating after approx. 10 d, 0 to 100 scale, 0 no effect, 100 complete control
In short: as §2

[9] = tested on: velvetleaf (Abutilon theophrasti); assay: Test A preemergence, velvetleaf; conditions: visual rating after approx. 10 d, 0 to 100 scale, 0 no effect, 100 complete control
Description: as §1

[10] = tested on: barnyardgrass (Echinochloa crus-galli); assay: Test A preemergence, barnyardgrass; conditions: visual rating after approx. 10 d, 0 to 100 scale, 0 no effect, 100 complete control
In short: as §2

[11] = tested on: morningglory (Ipomoea spp.); assay: Test A postemergence, morningglory; conditions: visual rating after approx. 10 d, 0 to 100 scale, 0 no effect, 100 complete control
Description: as §1

[12] = tested on: rice (Oryza sativa); assay: Test B flooded paddy test, rice; conditions: 250 g ai/ha; applied to paddy water at 2-leaf stage; 13 to 15 d; scale 0 no effect to 100 complete control
In short: as §3

[13] = tested on: pigweed (Amaranthus retroflexus); assay: Test A preemergence, pigweed; conditions: visual rating after approx. 10 d, 0 to 100 scale, 0 no effect, 100 complete control
In short: as §2

[14] = tested on: foxtail, giant (giant foxtail, Setaria faberii); assay: Test A preemergence, giant foxtail; conditions: visual rating after approx. 10 d, 0 to 100 scale, 0 no effect, 100 complete control
In short: as §2

[15] = tested on: crabgrass (large crabgrass, Digitaria sanguinalis); assay: Test A postemergence, crabgrass; conditions: visual rating after approx. 10 d, 0 to 100 scale, 0 no effect, 100 complete control
Description: as §1

[16] = tested on: ducksalad (Heteranthera limosa); assay: Test B flooded paddy test, ducksalad; conditions: 250 g ai/ha; applied to paddy water at 2-leaf stage; 13 to 15 d; scale 0 no effect to 100 complete control
In short: as §3

[17] = tested on: wheat (Triticum aestivum); assay: Test A preemergence, wheat; conditions: visual rating after approx. 10 d, 0 to 100 scale, 0 no effect, 100 complete control
Description: as §1

[18] = tested on: foxtail, giant (giant foxtail, Setaria faberii); assay: Test A postemergence, giant foxtail; conditions: visual rating after approx. 10 d, 0 to 100 scale, 0 no effect, 100 complete control
In short: as §2

[19] = tested on: wheat (Triticum aestivum); assay: Test A postemergence, wheat; conditions: visual rating after approx. 10 d, 0 to 100 scale, 0 no effect, 100 complete control
In short: as §2

[20] = tested on: corn (Zea mays); assay: Test A postemergence, corn; conditions: 1000 g ai/ha, visual rating after approx. 10 d, 0 to 100 scale, 0 no effect, 100 complete control
In short: as §2

O=C(Nc1ccccc1F)C1C(=O)OCC1c1ccc(F)c(F)c1 (racemic) [Compound 4]
Plant response rating, Corn ([1]; 1000 g ai/ha): 0 | Plant response rating, Barnyardgrass ([2]; 1000 g ai/ha): 70 | Plant response rating, Flood, Sedge, Umbrella [3]: 0 | Plant response rating, Velvetleaf ([4]; 1000 g ai/ha): 0 | Plant response rating, Morningglory ([5]; 1000 g ai/ha): 0 | Plant response rating, Flood, Barnyardgrass [6]: 20 | Plant response rating, Crabgrass ([7]; 1000 g ai/ha): 90 | Plant response rating, Pigweed ([8]; 1000 g ai/ha): 0 | Plant response rating, Velvetleaf ([9]; 1000 g ai/ha): 0 | Plant response rating, Barnyardgrass ([10]; 1000 g ai/ha): 70 | Plant response rating, Morningglory ([11]; 1000 g ai/ha): 0 | Plant response rating, Flood, Rice [12]: 15 | Plant response rating, Pigweed ([13]; 1000 g ai/ha): 0 | Plant response rating, Foxtail, Giant ([14]; 1000 g ai/ha): 80 | Plant response rating, Crabgrass ([15]; 1000 g ai/ha): 90 | Plant response rating, Flood, Ducksalad [16]: 0 | Plant response rating, Wheat ([17]; 1000 g ai/ha): 0 | Plant response rating, Foxtail, Giant ([18]; 1000 g ai/ha): 70 | Plant response rating, Wheat ([19]; 1000 g ai/ha): 0

O=C(Nc1ccccc1Cl)C1C(=O)OCC1c1ccc(F)c(F)c1 (racemic) [Compound 3]
Plant response rating, Corn ([1]; 125 g ai/ha): 0 | Plant response rating, Corn ([1]; 500 g ai/ha): 0 | Plant response rating, Barnyardgrass ([2]; 125 g ai/ha): 0 | Plant response rating, Barnyardgrass ([2]; 500 g ai/ha): 0 | Plant response rating, Flood, Sedge, Umbrella [3]: 0 | Plant response rating, Velvetleaf ([4]; 125 g ai/ha): 0 | Plant response rating, Velvetleaf ([4]; 500 g ai/ha): 0 | Plant response rating, Morningglory ([5]; 125 g ai/ha): 0 | Plant response rating, Morningglory ([5]; 500 g ai/ha): 0 | Plant response rating, Flood, Barnyardgrass [6]: 0 | Plant response rating, Crabgrass ([7]; 125 g ai/ha): 40 | Plant response rating, Crabgrass ([7]; 500 g ai/ha): 50 | Plant response rating, Pigweed ([8]; 125 g ai/ha): 0 | Plant response rating, Pigweed ([8]; 500 g ai/ha): 0 | Plant response rating, Velvetleaf ([9]; 125 g ai/ha): 0 | Plant response rating, Velvetleaf ([9]; 500 g ai/ha): 0 | Plant response rating, Barnyardgrass ([10]; 125 g ai/ha): 0 | Plant response rating, Barnyardgrass ([10]; 500 g ai/ha): 30 | Plant response rating, Morningglory ([11]; 125 g ai/ha): 0 | Plant response rating, Morningglory ([11]; 500 g ai/ha): 0 | Plant response rating, Flood, Rice [12]: 0 | Plant response rating, Pigweed ([13]; 125 g ai/ha): 0 | Plant response rating, Pigweed ([13]; 500 g ai/ha): 0 | Plant response rating, Foxtail, Giant ([14]; 125 g ai/ha): 70 | Plant response rating, Foxtail, Giant ([14]; 500 g ai/ha): 80 | Plant response rating, Crabgrass ([15]; 125 g ai/ha): 60 | Plant response rating, Crabgrass ([15]; 500 g ai/ha): 70 | Plant response rating, Flood, Ducksalad [16]: 0 | Plant response rating, Wheat ([17]; 125 g ai/ha): 0 | Plant response rating, Wheat ([17]; 500 g ai/ha): 0 | Plant response rating, Foxtail, Giant ([18]; 125 g ai/ha): 50 | Plant response rating, Foxtail, Giant ([18]; 500 g ai/ha): 60 | Plant response rating, Wheat ([19]; 125 g ai/ha): 0 | Plant response rating, Wheat ([19]; 500 g ai/ha): 0

O=C(Nc1ccccc1C(F)(F)F)C1C(=O)OCC1c1ccc(F)cc1 (stereo not shown) [Compound 6]
Plant response rating, Corn ([1]; 1000 g ai/ha): 0 | Plant response rating, Barnyardgrass ([2]; 1000 g ai/ha): 20 | Plant response rating, Flood, Sedge, Umbrella [3]: 0 | Plant response rating, Velvetleaf ([4]; 1000 g ai/ha): 0 | Plant response rating, Morningglory ([5]; 1000 g ai/ha): 0 | Plant response rating, Flood, Barnyardgrass [6]: 0 | Plant response rating, Corn [20]: 0 | Plant response rating, Crabgrass ([7]; 1000 g ai/ha): 80 | Plant response rating, Pigweed ([8]; 1000 g ai/ha): 0 | Plant response rating, Velvetleaf ([9]; 1000 g ai/ha): 0 | Plant response rating, Barnyardgrass ([10]; 1000 g ai/ha): 20 | Plant response rating, Morningglory ([11]; 1000 g ai/ha): 0 | Plant response rating, Flood, Rice [12]: 0 | Plant response rating, Pigweed ([13]; 1000 g ai/ha): 0 | Plant response rating, Foxtail, Giant ([14]; 1000 g ai/ha): 80 | Plant response rating, Crabgrass ([15]; 1000 g ai/ha): 80 | Plant response rating, Flood, Ducksalad [16]: 0 | Plant response rating, Wheat ([17]; 1000 g ai/ha): 0 | Plant response rating, Foxtail, Giant ([18]; 1000 g ai/ha): 80 | Plant response rating, Wheat ([19]; 1000 g ai/ha): 0
